According to patent publication US20050071891A1, “Repressible sterility of animals” (priority 1999, published 2005):

Assays:
[1] = tested on: HoxCG1; assay: Reversible arrested oyster larval development with tetracycline-responsive plasmid; assay type: in vivo; conditions: 72 hours
Source text: The second Sterile Feral Construct tested for oysters, expresses the tTA under the Drosophila HSP. The tTA then drives expression of red fluorescent protein and double stranded oyster Hox via the TRE. Three separate fragments were ligated together to form this construct. The first fragment was obtained by digestion of pBiT(dHSP)-EGFP, (Seq ID NO:19), with HindIII and NheI followed by gel purification of the appropriate fragment containing the Drosophila HSP promoter. The second fragment was obtained by digesting pBiT(dHSP)-EGFP with NotI and MluI followed by gel purification of the appropriate fragment containing the TRE. The third fragment was obtained by digesting pHSP-oHoxDS/BH with MluI and. SpeI and gel purifying the appropriate fragment containing the 510 bp fragment of the zBMP2 cDNA from sequence 301-810 in the published cDNA sequence (Lee et al., 1998). The fourth fragment was obtained by firstly subcloning into pGEM3zf a KpnI/XbaI fragment containing the coding region of red fluorescent protein (RFP) that was excised from pDsRed1-N1 (Clontech, PT3405-5) vector. The resulting plasmid was then subjected to digestion with HindIII and PspOMI and the appropriate fragment containing the coding region of RFP was then gel purified from this reaction. […]

[2] = tested on: HoxCG1 gene; assay: Arrested development of oyster embryos transfected with hairpin dsRNA plasmid; assay type: in vivo
Protocol: In vivo expression of dsRNA was achieved by transfecting oyster larvae with the pBiT(dHSP)-RFP-oHoxDS/BH plasmid (FIG. 21; SEQ ID NO:20), which contains the heat inducible promoter (PHSP70) from D. melanogaster driving the expression of a hairpin RNA molecule specific to the HoxCG1 gene. The construct was prepared as follows. SEQ ID NO:23 (AGAL ref #: NM99/09101) was used as a template to generate a PCR fragment using the following primers: […]
Oyster sperm were transfected with the DNA using electroporation, and oocytes were fertilized and larvae allowed to develop for 96 hours. Embryos were heat shocked for one hour at 3 hours post fertilization to induce transcription of the dsRNAs.

[3] = tested on: Pacific oyster larvae; assay: Electroporation of oyster sperm, GUS as reporter gene; assay type: in vivo, Crassostrea gigas
Protocol: Mature oysters (Crassostrea gigas) were obtained from local hatcheries in Tasmania and New South Wales, and held in artificial seawater at 10° C. until required. Eggs were collected from 2-3 females by stripping the gonads and were pooled, rinsed on a 20 μm mesh, and left to condition in artificial sea water for 2 h. Sperm were stripped from male gonads, diluted to approximately 10,000 gametes/μl, and used immediately for electroporation-mediated nucleic acid delivery. Plasmid DNA (50 μg/ml) or double-stranded RNA (dsRNA; 1 μg/ml) was delivered into 1×10^6 sperm using a BioRad Gene Pulser II electroporator in 0.2 cm gap electroporation cuvettes. Sperm were subjected to a single electroporation pulse (50 V, 100% modulation, 10 kHz, 12.5 msec) and immediately mixed with 5000 oocytes. Fertilized embryos and developing larvae were reared at 20° C. in artificial seawater containing 0.1 μg/ml chloramphenicol. Surviving larvae were counted after 24 h development. For experiments in which the Drosophila melanogaster heat shock promoter was used to drive expression of the delivered genes, a 1 h heat shock at 37° C. was provided either at 2 h or 18 h post fertilization, and development was then permitted to proceed at 20° C.
Transfection efficiencies were also assessed in a second set of experiments that examined delivery of pHSP-GUS construct (SEQ ID NO:21). The pHSP-GUS construct was made in a two step fashion. First, the D. melanogaster heat shock promoter and terminator were isolated from the pCaSpeR-hs plasmid (Thummel and Pirrotta, 1992, Drosophila Information Service 71: 150) by PCR using the two primers: […]
GUS activity in these experiments was measured using a fluorometric assay as previously described (Jefferson, R A 1987).

[4] = tested on: goosecoid; assay: Cotransfection of blocker plasmids with pSFM 6 (goosecoid fused to RFP) in P19-pSFM 7 cells; assay type: cell-based, mouse; conditions: transiently cotransfected with pSFM 6
Protocol: (§1) Fluorescent and transmitted light images were acquired using a CCD camera with a microscope. […] The luminescence assays were conducted by using a dark 96 well plate was done by Victor2 from Wallac or by Topcount NXT from Can berra Packard.
The first stage for testing blocker constructs is to set up an appropriate cell system to detect expression of reporter constructs. Initially, either pdsRED-N1 (CMV promoter RFP), pSFM 6 (CMV promoter goosecoid cDNA fused to RFP) or pSFM 24 (TRE EGFP) were transfected into P19-pSFM 7 cells to test the expression patterns of the EGFP, RFP and goosecoid-fused to RFP proteins (FIG. 37). […] In these cases, RFP expression fused to goosecid in the nucleus is expected to be inhibited in the presence of an appropriate blocker.
In order to assess various antisense and dsRNA blockers, pSFM 6 (CMV promoter goosecoid fused to RFP) was transiently cotransfected into the P19-pSFM 7 (Goosecoid promoter TET/OFF) cells along with either pSFM 5 (TRE promoter dsRNA goosecoid), pSFM 8, (CMV promoter antisense goosecoid), pSFM 9 (TRE promoter antisense goosecoid) or pSFM 24 (TRE promoter EGFP). […] There are several potential reasons for the absence of RNA blocker effects. First, antisense and dsRNA blockers may not be expressed at levels high enough to effectively interfere with the target mRNA molecules. Secondly, there may be cellular mechanisms in mammals that recognize and interfere with such constructs. Thirdly, the RNA inhibitory molecules may not be able to access and block the RNA target.

[5] = tested on: P19-pSFM 7 cells; assay: Luciferase activity of reporter plasmids transiently transfected in P19-pSFM 7 cells; assay type: cell-based, mouse; conditions: for luciferase activity, Fold: relative to pSFM 21; for luciferase activity, Average: transient transfection
Source text: Reporter plasmids pSFM 20 (goosecoid promoter luciferase+), pSFM 21 (promoterless luciferase+), pSFM 23 (CMV promoter luciferase+) and pSFM 25 (TRE luciferase+) were transiently transfected into either P19 or P19-pSFM 7 (Goosecoid TET/OFF) cells to test the effectiveness of the TET-OFF genetic switch driven by goosecoid promoter.

[6] = tested on: P19 cells; assay: Luciferase activity of reporter constructs transiently transfected in P19 cells; assay type: cell-based, mouse; conditions: for luciferase activity compared to the promoterless construct (pSFM 21) / luciferase activity, Average / luciferase activity, Fold: P19 cells; for luciferase activity compared to the promoterless construct (pSFM 21): transient; for luciferase activity, Average: transient transfection; for luciferase activity, Fold: relative to pSFM 21
Protocol: For transient transfection assays, P19 cells were cultured on gelatinized dishes in DMEM supplemented with 10% fetal bovine serum. Cells (0.3 million per well in 6-well cluster plates) were transfected with 5 μg reporter plasmid using transfection reagent ‘Geneporter’ from Gene Therapy Systems according manufacturer's recommendation.
as §1
P19 cells were transiently transfected in 6 well plates with pSFM 20 (goosecoid promoter-luciferase), pSFM 21 (promoterless luciferase) and pSFM 23 (CMV promoter-luciferase) using Gene Porter. Cells were harvested at various times post-tranfection and assayed for luciferase activity using a Promega kit (Cat. # E1501) in a Top Count NXT luminometer. […]

[7] = tested on: P19-pSFM 7 cells; assay: Luciferase activity of pSFM 25 in P19 clones stably integrated with pSFM 7; assay type: cell-based, mouse
Protocol: Stably integrated P19 clones were obtained by using BioRad Gene Pulser II electroporation system. 30 μg DNA electroporated into 10 million cells under following conditions 960 μF and 0.16 kV in a 0.4 cm cuvette (0.4 kV/cm). The next day normal media were replaced with appropriate selection media (300 μg/ml G418).
Selection of a P19 cell line stably integrated with a goosecoid-dependent TET-OFF transactivator P19 cells were electroporated with pSFM 7 (Goosecoid promoter-TET/OFF) linearised with ApaLI and selected for stable integration.
Table 20 showes the luciferase activities of pSFM 25 (TRE luciferase+) shown in counts per second (cps) of transiently transfected in P19-pSFM 7 cells.
Addition of doxycycline at 1 μg/ml reduced luciferase activity from pSFM 25 in this clone by 90 fold. This clone, containing stably integrated pSFM 7 was therefore designated P19-pSFM 7 and used for further testing.

Substance	intensity or number of cells expressing RFP in the nucleus [4]	luciferase activity, Fold [5]	luciferase activity, Average [5]	luciferase activity ([6]; 24 hours post-transfection)	luciferase activity ([6]; 48 hours post-transfection)	luciferase activity ([6]; 72 hours post-transfection)	luciferase activity, Average [6]	luciferase activity, Fold [6]	also measured
pHSP-GUS: expresses GUS under the control of the D. melanogaster heat shock promoter (SEQ ID NO:21)									% arrested development ([1]; No doxycycline): 5 ± 3%; % arrested development ([1]; With doxycycline (5 μg/μl)): 4 ± 3%; % arrested development ([2]; no heat shock): 6 ± 2%; % arrested development ([2]; with heat shock (one hour at 3 hours post fertilization)): 8 ± 3%; GUS activity ([3]; electroporation, heat shock): 83.2 ± 5.4 fluorescence units/μg protein; GUS activity relative to controls ([3]; electroporation, heat shock): 19.8; GUS activity ([3]; electroporation, no heat shock): 10.5 ± 0.5 fluorescence units/μg protein; GUS activity relative to controls ([3]; electroporation, no heat shock): 2.5; GUS activity ([3]; no electroporation, heat shock): 4.5 ± 0.5 fluorescence units/μg protein; GUS activity relative to controls ([3]; no electroporation, heat shock): 1.1
pSFM 5: Tet-responsive expression vector pTRE-goosecoid double strand RNA	significant difference could not be detected								
pSFM 8: pCMV promoter expressing goosecoid antisense RNA	significant difference could not be detected								
pSFM 9: Tet-responsive expression vector pTRE-goosecoid antisense RNA	significant difference could not be detected								
pSFM 20: goosecoid promoter expressing luciferase+ protein		6	365	1263 cps	3707 cps	1692 cps	610	5	luciferase activity compared to the promoterless construct (pSFM 21) [6]: 6 fold
pSFM 21: promoterless luciferase+		1	60	254 cps	604 cps	252 cps	121	1	
pSFM 23: pCMV promoter expressing luciferase+		267	16031	78778 cps	145403 cps	49936 cps	44491	367	luciferase activity compared to the promoterless construct (pSFM 21) [6]: 200-300 fold
pSFM 25: Tet-responsive expression vector pTRE-luciferase+		6	368				183	1.5	luciferase activity ([7]; clone 9, with doxycycline): 54858 cps; luciferase activity ([7]; clone 9, without doxycycline): 582529 cps; luciferase activity ([7]; clone 12, with doxycycline): 4396 cps; luciferase activity ([7]; clone 12, without doxycycline): 417268 cps; luciferase activity ([7]; clone 29, with doxycycline): 48260 cps; luciferase activity ([7]; clone 29, without doxycycline): 616604 cps; luciferase activity ([7]; clone 32, with doxycycline): 19548 cps; luciferase activity ([7]; clone 32, without doxycycline): 272888 cps; luciferase activity ([7]; clone 46, with doxycycline): 8013 cps; luciferase activity ([7]; clone 46, without doxycycline): 703470 cps
